The values below come from PubChem BioAssay AID248 (DTP/NCI, 2004).

The assay deals with L1210 leukemia ip in BDF1 mice, survival T/C. Description: NCI In Vivo Anticancer Drug Screen. Data for tumor model L1210 Leukemia (intraperitoneal) in B6D2F1 (BDF1) mice. The settings on record: endpoint: mean survival time, higher = longer survival. The method in brief: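 Mice bearing the transplanted tumor received compound or vehicle. Survival of the treated group was divided by that of the vehicle-treated control group to give the ratio.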

[1] abbreviates: dose: 50.0 mg/kg/injection, schedule: Q01DX009 (ip), vehicle: Klucel (hydroxypropylcellulose) (HPC).
The mark [2] stands for this setting: dose: 100.0 mg/kg/injection, schedule: Q01DX009 (ip), vehicle: Klucel (hydroxypropylcellulose) (HPC).
The mark [3] stands for this setting: dose: 200.0 mg/kg/injection, schedule: Q01DX009 (ip), vehicle: Klucel (hydroxypropylcellulose) (HPC).
Setting [4] is: dose: 400.0 mg/kg/injection, schedule: Q01DX009 (ip), vehicle: Klucel (hydroxypropylcellulose) (HPC).
[5] abbreviates: dose: 100.0 mg/kg/injection, schedule: Q01DX001 (ip), vehicle: saline.
[6] abbreviates: dose: 200.0 mg/kg/injection, schedule: Q01DX001 (ip), vehicle: saline.
The mark [7] stands for this setting: dose: 400.0 mg/kg/injection, schedule: Q01DX001 (ip), vehicle: saline.
The mark [8] stands for this setting: dose: 100.0 mg/kg/injection, schedule: Q01DX009 (ip), vehicle: saline with Tween-80.
[9] abbreviates: dose: 200.0 mg/kg/injection, schedule: Q01DX009 (ip), vehicle: saline with Tween-80.
The mark [10] stands for this setting: dose: 25.0 mg/kg/injection, schedule: Q01DX009 (ip), vehicle: Klucel (hydroxypropylcellulose) (HPC).
[11] abbreviates: dose: 50.0 mg/kg/injection, schedule: Q01DX001 (ip), vehicle: saline.
Setting [12] is: dose: 100.0 mg/kg/injection, schedule: Q04DX003 (ip), vehicle: Klucel (hydroxypropylcellulose) (HPC).
The mark [13] stands for this setting: dose: 200.0 mg/kg/injection, schedule: Q04DX003 (ip), vehicle: Klucel (hydroxypropylcellulose) (HPC).
Setting [14] is: dose: 400.0 mg/kg/injection, schedule: Q04DX003 (ip), vehicle: Klucel (hydroxypropylcellulose) (HPC).

Several values for one entry are separate records, joined by “and”; a condition that tells them apart may be missing. Equal values may be shown once. Inconclusive results and toxic doses are left out.

Turning to `Cc1ccc(C2NC(=O)c3ccccc3N2)s1` (stereo unspecified), the T/C is, setting by setting: under setting [1], 107 % of control and 92 % of control; under setting [2], 98 % of control and 105 % of control; (dose: 150.0 mg/kg/injection, schedule: Q01DX009 (ip), vehicle: Klucel (hydroxypropylcellulose) (HPC)) 102 % of control; under setting [3], 108 % of control; under setting [4], 87 % of control.

In the case of `COC1CCC(N)CC1` (stereo unspecified), the T/C is 109 % of control under setting [5], 107 % of control under setting [6] and 97 % of control under setting [7].

For `O=C(CCN1CC=C(c2ccccc2)CC1)NCc1ccccc1`, the T/C reads like this: under setting [8], 95 % of control; (dose: 100.0 mg/kg/injection, schedule: Q04DX003 (ip), vehicle: saline with Tween-80) 98 % of control; under setting [9], 93 % of control; (dose: 200.0 mg/kg/injection, schedule: Q04DX003 (ip), vehicle: saline with Tween-80) 100 % of control; (dose: 400.0 mg/kg/injection, schedule: Q01DX009 (ip), vehicle: saline with Tween-80) 95 % of control; (dose: 400.0 mg/kg/injection, schedule: Q04DX003 (ip), vehicle: saline with Tween-80) 100 % of control.

In the case of `Cc1cccc(Cl)c1NC(=O)Nc1cccc(C(=O)O)c1`, the T/C is 100 % of control under setting [10]; 87 % of control under setting [1]; 90 % of control under setting [2]; 86 % of control under setting [3]; 91 % of control under setting [4].

In the case of `CC[N+](CC)(CC)CCCNC(=O)C12CC3CC(CC(C3)C1)C2`, the T/C (dose: 25.0 mg/kg/injection, schedule: Q04DX002 (ip), vehicle: saline) was 95 % of control and the T/C (dose: 50.0 mg/kg/injection, schedule: Q04DX002 (ip), vehicle: saline) was 101 % of control.

As for `O=C(COc1ccccc1)NCCc1ccccc1`, the T/C (dose: 100.0 mg/kg/injection, schedule: Q04DX003 (ip), vehicle: gum acacia) is 97 % of control; the T/C (dose: 200.0 mg/kg/injection, schedule: Q04DX003 (ip), vehicle: gum acacia) was 108 % of control; the T/C (dose: 400.0 mg/kg/injection, schedule: Q04DX003 (ip), vehicle: gum acacia) is 95 % of control.

As for `C1OC1CN1CCC(C2CCN(CC3CO3)CC2)CC1` (stereo unspecified), the T/C is, setting by setting: (dose: 0.61 mg/kg/injection, schedule: Q01DX009 (ip), vehicle: saline) 114 % of control; (dose: 2.1 mg/kg/injection, schedule: Q01DX009 (ip), vehicle: saline) 156 % of control; (dose: 2.9 mg/kg/injection, schedule: Q01DX001 (ip), vehicle: saline) 121 % of control; (dose: 3.5 mg/kg/injection, schedule: Q01DX009 (ip), vehicle: saline) 120 % of control; (dose: 4.3 mg/kg/injection, schedule: Q01DX001 (ip), vehicle: saline) 115 % of control; (dose: 4.4 mg/kg/injection, schedule: Q01DX001 (ip), vehicle: saline) 159 % of control. Besides, the T/C is, setting by setting: (dose: 6.6 mg/kg/injection, schedule: Q01DX001 (ip), vehicle: saline) 122 % of control; (dose: 15.0 mg/kg/injection, schedule: Q01DX001 (ip), vehicle: saline) 160 % of control; (dose: 15.0 mg/kg/injection, schedule: Q01DX009 (ip), vehicle: saline) 150 % of control and 152 % of control; under setting [11], 164 % of control; (dose: 60.0 mg/kg/injection, schedule: Q01DX001 (ip), vehicle: saline) 156 % of control; (dose: 60.0 mg/kg/injection, schedule: Q01DX009 (ip), vehicle: saline) 91 % of control.

`COC(=O)C1(C)CCC(c2ccc(OC)cc2)CC1=O` (stereo unspecified): the T/C by setting is: (dose: 100.0 mg/kg/injection, schedule: Q01DX009 (ip), vehicle: saline) 93 % of control; (dose: 100.0 mg/kg/injection, schedule: Q04DX003 (ip), vehicle: saline) 92 % of control; (dose: 200.0 mg/kg/injection, schedule: Q01DX009 (ip), vehicle: saline) 88 % of control; (dose: 200.0 mg/kg/injection, schedule: Q04DX003 (ip), vehicle: saline) 95 % of control; (dose: 400.0 mg/kg/injection, schedule: Q01DX009 (ip), vehicle: saline) 90 % of control; (dose: 400.0 mg/kg/injection, schedule: Q04DX003 (ip), vehicle: saline) 88 % of control.

As to `CC(=N\O)/C(=N/O)c1ccc(O)cc1`, the T/C is 97 % of control (dose: 5.0 mg/kg/injection, schedule: Q01DX001 (ip), vehicle: saline); 100 % of control (dose: 10.0 mg/kg/injection, schedule: Q01DX001 (ip), vehicle: saline); 97 % of control (dose: 20.0 mg/kg/injection, schedule: Q01DX001 (ip), vehicle: saline).

With `CN(C)c1ccc(C=O)cc1[N+](=O)[O-]`, the T/C reads like this: under setting [1], 94 % of control; under setting [2], 97 % of control; under setting [12], 97 % of control; under setting [3], 100 % of control; under setting [13], 92 % of control; under setting [14], 100 % of control.

As for `CCCCCCCC/C=C\CCCCCCCCOC(=O)Cc1ccc(N(CCCl)CCCl)cc1`, the T/C by setting is: (dose: 100.0 mg/kg/injection, schedule: Q01DX005 (ip), vehicle: Klucel (hydroxypropylcellulose) (HPC)) 119 % of control; (dose: 100.0 mg/kg/injection, schedule: Q04DX002 (ip), vehicle: Klucel (hydroxypropylcellulose) (HPC)) 121 % of control; (dose: 200.0 mg/kg/injection, schedule: Q01DX005 (ip), vehicle: Klucel (hydroxypropylcellulose) (HPC)) 115 % of control; (dose: 200.0 mg/kg/injection, schedule: Q04DX002 (ip), vehicle: Klucel (hydroxypropylcellulose) (HPC)) 117 % of control; (dose: 400.0 mg/kg/injection, schedule: Q04DX002 (ip), vehicle: Klucel (hydroxypropylcellulose) (HPC)) 121 % of control.

As for `Cc1cnc(-n2nc(-c3ccccc3)c3c2-c2ccccc2C3)nc1-c1ccccc1O`, the T/C was 91 % of control (dose: 6.25 mg/kg/injection, schedule: Q01DX009 (ip), vehicle: Klucel (hydroxypropylcellulose) (HPC)) and 87 % of control (dose: 12.5 mg/kg/injection, schedule: Q01DX009 (ip), vehicle: Klucel (hydroxypropylcellulose) (HPC)).

On to `CN(C(=O)CCC(=O)N(C)c1ccccc1)c1ccccc1`, for which the T/C is 97 % of control under setting [8] and 87 % of control under setting [9].

For `CCOC(=O)C(=Cc1ccc(Cl)cc1)C(=O)OCC`, the T/C under setting [10] is 95 % of control; the T/C under setting [1] is 97 % of control; the T/C under setting [2] was 102 % of control; the T/C under setting [12] is 107 % of control; the T/C under setting [13] was 98 % of control; the T/C under setting [14] was 100 % of control.

As for `Clc1ccc(Nc2ncnc3ncn(Cc4ccccc4)c23)cc1`, the T/C (dose: 100.0 mg/kg/injection, schedule: Q01DX001 (ip), vehicle: other) is 89 % of control; the T/C (dose: 200.0 mg/kg/injection, schedule: Q01DX001 (ip), vehicle: other) was 93 % of control; the T/C (dose: 400.0 mg/kg/injection, schedule: Q01DX001 (ip), vehicle: other) is 101 % of control.

Take `ON=C1CCSCC1`: the T/C was 107 % of control under setting [5], 98 % of control under setting [6] and 108 % of control under setting [7].

For the molecule `O=C(O)C1OC1(c1ccccc1Cl)c1ccccc1Cl` (stereo unspecified), the T/C is 101 % of control under setting [11], 95 % of control under setting [5], 98 % of control under setting [6] and 104 % of control under setting [7].

Regarding `CC1(NCCOC(=O)c2ccc(N)cc2)CCCCC1`, the T/C is, setting by setting: (dose: 75.0 mg/kg/injection, schedule: Q01DX001 (ip), vehicle: saline) 100 % of control; (dose: 150.0 mg/kg/injection, schedule: Q01DX001 (ip), vehicle: saline) 100 % of control.

Turning to `Cc1c(NC(=O)Nc2ccc(F)c([N+](=O)[O-])c2)c(=O)n(-c2ccccc2)n1C`, the T/C was 102 % of control under setting [2], 96 % of control under setting [3] and 103 % of control under setting [4].
